Data on 11 molecules can be found in ChEMBL document CHEMBL1145587, “Facile formation of hydrophilic derivatives of 5H-8,9-dimethoxy-5-[2-(N,N-dimethylamino)ethyl]-2,3-methylenedioxydibenzo[c,h] [1,6]naphthyridin-6-one (ARC-111) and its 12-aza analog via quaternary ammonium intermediates” (Bioorg Med Chem Lett, 2008).

Assay [1] deals with T1, DNA topoisomerase 1 (Homo sapiens) (UniProt P11387).
T1 sequence (whole entry): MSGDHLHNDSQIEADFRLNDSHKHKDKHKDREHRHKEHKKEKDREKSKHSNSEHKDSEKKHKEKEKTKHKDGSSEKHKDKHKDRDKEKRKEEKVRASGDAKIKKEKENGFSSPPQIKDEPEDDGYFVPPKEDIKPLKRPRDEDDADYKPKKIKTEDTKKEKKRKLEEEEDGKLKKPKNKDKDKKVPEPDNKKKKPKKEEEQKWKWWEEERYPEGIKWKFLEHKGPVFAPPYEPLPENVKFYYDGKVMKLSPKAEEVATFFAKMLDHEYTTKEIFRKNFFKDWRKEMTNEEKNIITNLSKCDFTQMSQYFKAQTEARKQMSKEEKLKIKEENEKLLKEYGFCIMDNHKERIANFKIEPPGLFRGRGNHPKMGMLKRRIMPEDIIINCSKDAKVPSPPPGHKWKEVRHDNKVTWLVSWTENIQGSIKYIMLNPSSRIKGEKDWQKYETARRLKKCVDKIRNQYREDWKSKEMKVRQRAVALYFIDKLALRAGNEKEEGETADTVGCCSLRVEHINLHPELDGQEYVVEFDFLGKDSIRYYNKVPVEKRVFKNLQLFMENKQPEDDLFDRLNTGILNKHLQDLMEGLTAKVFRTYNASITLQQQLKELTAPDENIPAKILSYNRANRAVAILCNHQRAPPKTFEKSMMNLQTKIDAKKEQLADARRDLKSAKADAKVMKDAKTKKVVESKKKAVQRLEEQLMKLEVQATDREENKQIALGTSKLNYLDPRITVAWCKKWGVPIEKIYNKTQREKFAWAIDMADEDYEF
Briefly: Effect on human topoisomerase 1-mediated plasmid DNA cleavage relative to topotecan.

Assay [2] in a line: Cytotoxicity against human […] cells. It is filed as functional, cell-based.
The nature of assay [3]: Cytotoxicity against human camptothecin-resistant CPT-K5 cells. It is filed as functional, cell-based.
For assay [4], the system named is P388. Briefly: Cytotoxicity against […] cells. Type of assay: functional, cell-based. Particulars: Mus musculus.
Assay [5] can be described thus: Cytotoxicity against […] cells. It is filed as functional, cell-based. Particulars: Mus musculus, P388CPT45.

Regarding `COc1cc2c(=O)n(CCn3ccnc3)c3c4cc5c(cc4nnc3c2cc1OC)OCO5`, the Activity in assay [1] came to 0.1. The IC50 is 400 nM in assay [2], above 10000 nM in assay [3], 190 nM in assay [4] and above 10000 nM in assay [5].
The molecule `COc1cc2c(=O)n(CCN(C)C)c3c4cc5c(cc4nnc3c2cc1OC)OCO5` came in with an Activity in assay [1] of 0.3. In addition, the IC50 in assay [2] was 2 nM; in assay [3], 740 nM; in assay [4], 2 nM; in assay [5], 230 nM.
`COc1cc2c(=O)n(CCn3ccnc3)c3c4cc5c(cc4ncc3c2cc1OC)OCO5` displayed an Activity in assay [1] of 2.3. For the same molecule, the IC50 in assay [2] was 210 nM; in assay [3] it was above 10000 nM; in assay [4], 200 nM; in assay [5], above 10000 nM.
Regarding `COc1cc2c(=O)n(CCNC(CO)(CO)CO)c3c4cc5c(cc4nnc3c2cc1OC)OCO5`, in assay [1], the Activity stood at 0.2. Further, the IC50 in assay [2] turned out to be 65 nM; in assay [3] it was 5700 nM; in assay [4] it was 40 nM; in assay [5], 3000 nM.
Take `COc1cc2c(=O)n(CCNC(CO)(CO)CO)c3c4cc5c(cc4ncc3c2cc1OC)OCO5`: in assay [1], the Activity came out at 2. Further, the IC50 in assay [2] is 330 nM; in assay [3], 7000 nM; in assay [4] it was 330 nM; in assay [5] it was 3500 nM.
The molecule `COc1cc2c(=O)n(CCN(C)C)c3c4cc5c(cc4ncc3c2cc1OC)OCO5` returned an Activity in assay [1] of 0.3. The IC50 in assay [2] stood at 2 nM; in assay [3], 900 nM; in assay [4], 1 nM; in assay [5], 230 nM.
The corresponding values for `CC[C@@]1(O)C(=O)OCc2c1cc1n(c2=O)Cc2cc3ccccc3nc2-1` [CAMPTOTHECIN] are 0.2, 4 nM, above 10000 nM, 4 nM and above 10000 nM.
Taken in the same sequence, the figures for `COc1cc2c(=O)n(CCN(C)CCN(C)C)c3c4cc5c(cc4nnc3c2cc1OC)OCO5` were 0.4, 33 nM, 2200 nM, 19 nM and 300 nM.
In turn, `COc1cc2c(=O)n(CCN(C)CCN(C)C)c3c4cc5c(cc4ncc3c2cc1OC)OCO5` displayed an Activity in assay [1] of 0.7. Besides, the IC50 in assay [2] stood at 45 nM; in assay [3], 2200 nM; in assay [4], 35 nM; in assay [5], 70 nM.
The corresponding values for `COc1cc2c(=O)n(CCO)c3c4cc5c(cc4ncc3c2cc1OC)OCO5` are 4.7, 30 nM, above 10000 nM, 30 nM and 900 nM.
As for `COc1cc2c(=O)n(CCO)c3c4cc5c(cc4nnc3c2cc1OC)OCO5`, the Activity in assay [1] was determined as 0.3. Also, the IC50 in assay [2] is 13 nM; in assay [3] it was 1300 nM; in assay [4], 12 nM; in assay [5], 700 nM.

As a reminder, the IC50 is the midpoint of a concentration-inhibition curve. A high value points to weaker potency in that assay.
